Patent US20220380371A1, “MLL1 INHIBITORS AND ANTI-CANCER AGENTS” (NOVARTIS AG, priority 2019, published 2022)
Read-outs that look alike come from different tables or passages of the source.

Key:
[1] = target: wild type MLL1 four-member complex (MLL1-4C) (Homo sapiens, UniProt Q03164); assay: MLL1 LC-MS Assay; format: biochemical
Experimental: The compounds of the present disclosure were serially and separately diluted 3-fold in DMSO to obtain a total of eight or twelve concentrations. Then the test compounds at each concentration (120 nL of each) were transferred by Mosquito into white Proxiplate plus 384-well microplate (PerkinElmer). Solutions (6 μL) of 60 nM wild type MLL1 four-member complex (MLL1-4C) and 5 μM SAM in the reaction buffer (20 mM Tris-HCl, pH 8.0, 0.01% Tween 20, 1 mM DTT, 10 mM MgCl2, 0.01% BSA) were added to the wells that were then incubated with the test compound for 20 min. A 6 μL solution of 20 μM of the peptide substrate H3K4me0 (histone H3[1-21]-Biotin) in the reaction buffer was added to initiate each reaction. The final components in the reaction solution include 30 nM MLL1-4C, 2.5 μM SAM, and 10 μM H3K4me0 with varying concentration of the compounds. A positive control consisted of 30 nM MLL1-4C, 2.5 μM SAM, and 10 μM substrate in the absence of the test compound, and a negative control consisted of 2.5 μM SAM, and 10 μM substrate only. Each reaction was incubated at rt for 120 min, then stopped by addition of 3 μL per of quench solution (2.5% TFA with 320 nM d4-SAH). The reaction mixture was centrifuged (Eppendorf centrifuge 5810, Rotor A-4-62) for 2 min at 2000 rpm. The SAH production from the enzymatic assays were monitored by LC-MS/MS on an API 4000 triple quadrupole mass spec with Turbolon Spray (Applied Biosystem) coupled with Prominenece UFLC (Shimazu). The level of SAH production were then normalized based on the values coming from the positive and negative controls to give percent enzyme activities. The data were then fit to a dose response equation using the program Helios (Novartis) to get the IC50 values of the test compounds.

H3K4me3 in MV4-11 cells = assay: MV4-11 H3K4me3 Cellular ELISA Assay; format: cell-based; conditions: Homo sapiens, MV4-11, 48 h
Experimental: MV4-11 H3K4me3 Cellular ELISA Assay
MV4-11 (ATCC® CRL-9591™) was cultured with RPMI1640 medium (Thermo Fisher Scientific, cat #11875) supplemented with 10% FBS (Thermo Fisher Scientific, cat #10099141) and 50 U/ml Penicillin-Streptomycin (Thermo Fisher Scientific, cat #10378016) in humidified incubator at 37° C., 5% CO2.
200 nL compounds dissolved in DMSO were serially diluted at 1:3 ratio for 12 points starting from 10 mM and dispensed into each wells of cell culture plates (PDL-coated ViewPlate-384 Black, FTC, PerkinElmer, #6007710). 3,750 MV4-11 cells in 40 μL culture medium were seeded into each well and treated with desired concentration for 48 hours. After treatment, wash cells with cold phosphate based buffer (PBS, pH 7.4) and aspirate the remaining PBS buffer. Crude histone lysate was extracted by 40 μL 0.5M HCl for 1 hour in 4° C. following neutralization by adding 32 μL neutralization buffer (0.5M Sodium phosphate dibasic, pH ˜12.5, 1.25 mM Dithiothreitol, Promega #V3151, Protease Inhibitor Cocktail, Sigma #8340) for each well. 5 μL and 20 μL of histone lysate was loaded to ELISA plate (384 Well Plates, PE HB, White, 6005620) for detection of total H3 and H3K4me3, respectively. Shake the plates gently in 4° C. for overnight. After histone binding, plates were washed with 80 μL PBS/T (PBS with 0.05% Tween-20) and blocked with 50 μL 3% BSA diluted in PBS/T per well for 1 hour. Incubate wells with primary antibody for 1 hour at room temperature using anti-H3K4me3 (CST #9727) and anti-total H3 (CST #9715) diluted 1:2000 in 3% BSA. Plates were then washed with PBS/T for 3 times and incubated with horseradish peroxidase (HRP) conjugated secondary antibody (CST #7074, 1:5000) for 1 hour at room temperature. The abundance of H3K4me3 and total H3 were measured by ECL substrates chemiluminescence (Pierce, #34080) on a plate reader (PerkinElmer EnVison 2104 Mutilable Reader). Percentage inhibition was calculated against DMSO control after normalization of H3K4me3 signal to H3 signal for individual samples. The data were then fit to a dose response curve using GraphPad Prism for IC50 calculation.

MV4-11 cells = assay: MV4-11 6-Day Cell Growth CTG (CellTiter-Glo) Assay; format: cell-based; conditions: Homo sapiens, MV4-11, 144 h, MV4-11 cell growth CellTiter-Glo, 6 days
Experimental: MV4-11 6-Day Cell Growth CTG (CellTiter-Glo) Assay
Acute myeloid leukemia cell MV4-11 (ATCC® CRL-9591™) was cultured with RPMI 1640 medium (Thermo Fisher Scientific, cat #11875) supplemented with 10% FBS (Thermo Fisher Scientific, cat #10099141) in humidified incubator at 37° C., 5% CO2. To assess the effect of MLL1 inhibition on cell growth, the compound of the present invention was dissolved in DMSO and serially diluted at 1:3 for 12 points starting from 10 mM then 200 nL for the replicate of each dose per well was dispensed to Viewplate-384 Black (Perkin Elmer). Exponentially growing MV4-11 cells were seeded at the density of 300 cells per well in 40 μL to the plate, so the final compound working concentration starts from 50 μM. After 6 days, 40 μL CellTiter-Glo (Promega, cat #G7573) was added into the cell culture well and luminescence was read with Envision (Perkin Elmer) to determine the viable cells. The percentage inhibition was calculated against the samples treated with DMSO only and the data were used for dose response curve fitting in GraphPad Prism to get the IC50 of representative compound of present invention, which reflects the inhibition of MLL1 activity.

IC50 ([1]; read-out: LCMS) | IC50 (H3K4me3 in MV4-11 cells) | IC50 (MV4-11 cells) | IC50 ([1]; read-out: MLL1 LCMS) | SMILES
50 to 100 nM | > 3000 nM | – | – | CCNC(=O)CC[C@@]1(N)CCN(c2cc(Cl)cc(Br)c2Cn2cnc3c(N)ncnc32)C1 (single isomer, unassigned) [Example 36]
< 50 nM | > 3000 nM | – | – | Nc1ncnc2c1ncn2Cc1c(Br)cc(Cl)cc1N1CC[C@](N)(CCc2nn[nH]n2)C1 (single isomer, unassigned) [Example 39]
> 100 nM | < 1900 nM | 2000 to 3000 nM | – | Nc1ncnc2c1ncn2Cc1c(N2CC[C@](N)(C(=O)NC3CC3)C2)ccc(F)c1C(O)C(F)(F)F (single isomer, unassigned) [Example 82]
50 to 100 nM | < 1900 nM | 2000 to 3000 nM | – | Nc1ncnc2c1ncn2Cc1c(Br)c(Cl)c2c(c1N1CC[C@](N)(C(=O)NC3CC3)C1)CCC2 (stereo in doubt) [Example 42]
< 50 nM | > 3000 nM | < 2000 nM | – | Nc1ncnc2c1ncn2Cc1c(N2CC[C@](N)(C(=O)NC3CC3)C2)ccc(Cl)c1C1CC1 (stereo in doubt) [Example 97]
50 to 100 nM | < 1900 nM | < 2000 nM | – | C#Cc1c(F)ccc(N2CC[C@](N)(C(=O)NC3CC3)C2)c1Cn1cnc2c(N)ncnc21 [Example 5]
< 50 nM | < 1900 nM | < 2000 nM | – | Nc1ncnc2c1ncn2Cc1c(N2CC[C@](N)(C(=O)NC3CC3)C2)ccc(F)c1CC(F)(F)F [Example 6]
50 to 100 nM | < 1900 nM | > 3000 nM | – | Nc1ncnc2c1ncn2Cc1c(CC(F)(F)F)cc(Cl)cc1N1CC[C@](N)(C(=O)NC2CC2)C1 [Example 7]
50 to 100 nM | < 1900 nM | < 2000 nM | – | Nc1ncnc2c1ncn2Cc1c(N2CC[C@](N)(C(=O)NC3CC3)C2)ccc(F)c1C1CC1 [Example 8]
> 100 nM | < 1900 nM | < 2000 nM | – | C=Cc1c(F)ccc(N2CCC(N)(C(=O)NC3CC3)C2)c1Cn1cnc2c(N)ncnc21 (stereo not shown) [Example 9]
< 50 nM | < 1900 nM | < 2000 nM | – | CCc1c(F)ccc(N2CC[C@](N)(C(=O)NC3CC3)C2)c1Cn1cnc2c(N)ncnc21 [Example 10]
< 50 nM | < 1900 nM | < 2000 nM | – | Cc1c(C(F)(F)F)ccc(N2CC[C@](N)(C(=O)NC3CC3)C2)c1Cn1cnc2c(N)ncnc21 [Example 11]
50 to 100 nM | < 1900 nM | < 2000 nM | – | CCc1c(C(F)(F)F)ccc(N2CC[C@](N)(C(=O)NC3CC3)C2)c1Cn1cnc2c(N)ncnc21 [Example 12]
< 50 nM | < 1900 nM | < 2000 nM | – | Nc1ncnc2c1ncn2Cc1c(N2CC[C@](N)(C(=O)NC3CC3)C2)ccc(F)c1Br [Example 13]
50 to 100 nM | > 3000 nM | – | – | COc1ccc(Br)c(Cn2cnc3c(N)ncnc32)c1N1CC[C@](N)(C(=O)NC2CC2)C1 [Example 21]
< 50 nM | > 3000 nM | – | – | Nc1ncnc2c1ncn2Cc1c(Br)cc(Cl)cc1N1CC[C@](N)(c2cc(C(F)(F)F)ccn2)C1 [Example 27]
> 100 nM | > 3000 nM | – | – | Nc1ncnc2c1ncn2Cc1c(Br)cc(Cl)cc1N1CC[C@](N)(COCC(=O)NC2CC2)C1 [Example 30]
> 100 nM | < 1900 nM | – | – | CCOC(=O)CC[C@@]1(N)CCN(c2cc(Cl)cc(Br)c2Cn2cnc3c(N)ncnc32)C1 [Example 34]
50 to 100 nM | > 3000 nM | – | – | CCc1cc(Cl)cc(N2CC[C@](N)(CCc3nnc(NC)s3)C2)c1Cn1cnc2c(N)ncnc21 [Example 35]
> 100 nM | > 3000 nM | – | – | NC(=O)CCC1(N)CCN(c2cc(Cl)cc(Br)c2Cn2cnc3c(N)ncnc32)C1 (stereo not shown) [Example 37]
< 50 nM | > 3000 nM | – | – | CCNC(=O)CC[C@@]1(N)CCN(c2cc(Cl)cc(CC)c2Cn2cnc3c(N)ncnc32)C1 [Example 38]
> 100 nM | > 3000 nM | – | – | CCc1cc(Cl)cc(N2CC[C@](N)(CCc3nn[nH]n3)C2)c1Cn1cnc2c(N)ncnc21 [Example 40]
< 50 nM | > 3000 nM | – | – | COC(=O)NCc1c(F)ccc(N2CC[C@](N)(C(=O)NC3CC3)C2)c1Cn1cnc2c(N)ncnc21 [Example 71]
> 100 nM | > 3000 nM | – | – | CN(C)Cc1c(Cl)cc(Cl)c(N2CC[C@](N)(C(=O)NC3CC3)C2)c1Cn1cnc2c(N)ncnc21 [Example 74]
> 100 nM | > 3000 nM | – | – | CN(C)Cc1cc(Cl)c(Cl)c(N2CC[C@](N)(C(=O)NC3CC3)C2)c1Cn1cnc2c(N)ncnc21 [Example 89, (R)-3-amino-1-(2-((6-amino-9H-purin-9-yl)methyl)-5,6-dichloro-3-((dimethylamino)methyl)phenyl)-N-cyclopropylpyrrolidine-3-carboxamide]
50 to 100 nM | > 3000 nM | – | – | Cn1nnc([C@@]2(N)CCN(c3cc(Cl)cc(Br)c3Cn3cnc4c(N)ncnc43)C2)n1 [Example 91, (R)-9-(2-(3-amino-3-(2-methyl-2H-tetrazol-5-yl)pyrrolidin-1-yl)-6-bromo-4-chlorobenzyl)-9H-purin-6-amine]
– | > 3000 nM | – | > 100 nM | Cc1ccc(Cl)c(Cn2cnc3c(N)ncnc32)c1N1CCC(N)(C(=O)NC2CC2)C1 (stereo not shown) [Example 157]
– | < 1900 nM | – | 50 to 100 nM | Nc1ncnc2c1ncn2Cc1c(N2CC[C@@](N)(C(=O)NC3CC3)C2)ccc2ccccc12 [Example 166]
– | < 1900 nM | – | < 50 nM | Nc1ncnc2c1ncn2Cc1c(N2CC[C@](N)(C(=O)NC3CC3)C2)ccc2cc(Br)ccc12 [Example 167]
